Assay [1] has as its target T1, mouse OX1R (Mus musculus, UniProt P58307).
T1 construct: expressed in transfected cells; host or cells: HEK; cells from GNF, San Diego
T1 sequence (P58307 1-416): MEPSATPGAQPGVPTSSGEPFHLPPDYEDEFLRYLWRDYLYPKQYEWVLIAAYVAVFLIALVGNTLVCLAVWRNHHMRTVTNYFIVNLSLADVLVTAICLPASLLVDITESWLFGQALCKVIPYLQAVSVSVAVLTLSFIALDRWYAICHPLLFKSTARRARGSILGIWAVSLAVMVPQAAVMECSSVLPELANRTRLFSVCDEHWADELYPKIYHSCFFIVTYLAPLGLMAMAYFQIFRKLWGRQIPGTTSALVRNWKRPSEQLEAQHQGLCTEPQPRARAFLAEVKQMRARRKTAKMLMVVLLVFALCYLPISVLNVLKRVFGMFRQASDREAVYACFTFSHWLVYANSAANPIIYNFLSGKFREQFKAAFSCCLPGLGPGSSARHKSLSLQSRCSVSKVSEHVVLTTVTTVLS
Nature of the assay: FLIPR orexin A-stimulated calcium accumulation, mouse OX1R. The note with it: HEK cells. In kind it is cell-based. How it is done:
(§1) Chinese Hamster Ovary (CHO) cells stably transfected with the cDNA encoding the human OX1R (CHO-hOX1) or OX2R (CHO-hOX2) were used (kindly provided by T. Cremer and Dr. S. Geisse, NIBR Basel, Switzerland). For measurements of calcium accumulation using FLIPR® (Fluorescent Imaging Plate Reader) assay, CHO or Human Embryonic Kidney (HEK) cells stably expressing mouse, rat or human OX1R or OX2R (kindly provided by Dr. A. Chen, GNF, San Diego, CA, USA) were used. All cells were cultured in 1:1 Dulbecco's Modified Eagle's Medium (DMEM)/Ham's F12 Nutrients Mixture (F12) supplemented with 10% (v/v) fetal bovine serum (FBS), 100 μ/ml (100 g/ml)/streptomycin (100 μg/ml), Fungizone (250 μg/ml), and Geneticin (G418, 50 mg/ml). Cells were maintained in a humidified incubator at 37°C in 5% CO2. For crude cell membrane preparations, cells were washed and harvested in 10 mM HEPES (pH 7.5), and centrifuged at 4°C for 5 min at 2500 g. The cell pellet was either stored at −80°C or used directly.
(§2) Cells expressing either human, rat or mouse OX1R or OX2R were seeded at 8,000 cells/well in black 384 well clear bottom plates and incubated overnight at 37°C. The following day, medium was discarded and cells loaded with 50 μ l of 1 mM Fluo-4 AM (Invitrogen F14202) in dimethyl sulfoxide in working buffer (Hanks' balanced salt solution, 10 mM HEPES) and incubated for 60 min at 37°C. The loading buffer was removed and cells were washed with 100 μ l working buffer containing […], 0.1% BSA, and 2.5 mM Probenecid (pH 7.4) to remove the excess Fluo-4 AM. […] The assay plate was then transferred to the Molecular Devices-FLIPR384. The baseline calcium signal was recorded for 10 s, then the antagonist of interest was injected (10 μl at 3 times the final concentration) and the calcium signal recorded every second for 1 min, then every 2 s 40 times. Plates were then incubated at room temperature for 30 min, 1, 2, or 4 h.

Assay [2] has as its target T2, human OX2R (Homo sapiens, UniProt O43614).
T2 construct: expressed in transfected cells; host or cells: CHO; cells from GNF, San Diego
T2 sequence (O43614 1-444): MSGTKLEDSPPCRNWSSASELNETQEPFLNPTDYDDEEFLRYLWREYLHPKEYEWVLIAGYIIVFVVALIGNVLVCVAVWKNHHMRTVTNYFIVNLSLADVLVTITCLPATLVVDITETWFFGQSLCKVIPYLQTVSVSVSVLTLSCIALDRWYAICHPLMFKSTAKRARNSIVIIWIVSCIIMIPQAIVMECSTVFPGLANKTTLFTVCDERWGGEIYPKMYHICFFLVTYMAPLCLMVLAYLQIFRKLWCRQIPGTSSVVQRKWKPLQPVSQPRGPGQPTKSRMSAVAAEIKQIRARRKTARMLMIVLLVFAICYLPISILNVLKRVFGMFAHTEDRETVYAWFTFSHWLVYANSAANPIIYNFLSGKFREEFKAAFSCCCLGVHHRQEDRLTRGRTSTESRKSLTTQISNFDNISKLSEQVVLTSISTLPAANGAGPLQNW
The assay is described as follows: FLIPR orexin A-stimulated calcium accumulation, human OX2R. Particulars: CHO cells. The class given is cell-based.
Source text: as §1, with “All cells were cultured in 1:1 Dulbecco's Modified Eagle's Medium (DMEM)/Ham's F12 Nutrients Mixture (F12) supplemented with 10% (v/v) fetal bovine serum (FBS), 100 μ/ml (100 g/ml)/streptomycin (100 μg/ml), Fungizone (250 μg/ml), and Geneticin (G418, 50 mg/ml).” left out
as §2, with “times.” for “times. Plates were then incubated at room temperature for 30 min, 1, 2, or 4 h.”

[3] abbreviates: pKi, antagonist incubation 30 min.
The mark [4] stands for this setting: antagonist incubation 30 min, read-out: pKi (converted).
[5] abbreviates: antagonist incubation 1 h, read-out: pKi (converted).
Setting [6] is: antagonist incubation 2 h, read-out: pKi (converted).
Where [7] appears, read: antagonist incubation 4 h, read-out: pKi (converted).

Read-outs that look alike come from different tables or passages of the source.

On to `CNC(=O)[C@@H](c1ccccc1)N1CCc2cc(OC)c(OC)cc2[C@@H]1CCc1ccc(C(F)(F)F)cc1` [Almorexant], for which the Ki in assay [1] (setting [3]) was 18.6 nM; in assay [1] (pKi, antagonist incubation 1 h), 23.4 nM; in assay [1] (pKi, antagonist incubation 2 h) it was 33.9 nM; in assay [1] (pKi, antagonist incubation 4 h), 38.9 nM; in assay [2] (antagonist incubation 1 h) it was 1.51 nM; in assay [2] (antagonist incubation 2 h) it was 1.58 nM. Moreover, the Ki in assay [2] (antagonist incubation 4 h) is 0.813 nM. Further, in assay [2] (antagonist incubation 30 min), the pKi was 8.33 −log M.

As for `Cc1ccc(-n2nccn2)c(C(=O)N2CCN(c3nc4cc(Cl)ccc4o3)CC[C@H]2C)c1` [Suvorexant], the Ki in assay [1] (setting [3]) was 1.26 nM; in assay [1] (pKi, antagonist incubation 1 h), 1.05 nM; in assay [1] (pKi, antagonist incubation 2 h) it was 0.933 nM; in assay [1] (pKi, antagonist incubation 4 h), 1.02 nM.

`Cc1ccc(-c2ncccn2)c(C(=O)N2C[C@H](COc3ccc(F)cn3)CC[C@H]2C)c1` [Filorexant]: the Ki in assay [1] (setting [4]) was 5.25 nM; in assay [1] (setting [5]) it was 4.07 nM; in assay [1] (setting [6]), 6.61 nM; in assay [1] (setting [7]), 5.89 nM; in assay [2] (antagonist incubation 30 min), 0.355 nM; in assay [2] (antagonist incubation 1 h), 0.224 nM. The Ki in assay [2] (antagonist incubation 2 h) is 0.186 nM; in assay [2] (antagonist incubation 4 h) it was 0.17 nM.

On to `Cc1nc(C(=O)N2CCCC[C@H]2CNC(=O)c2cccc3occc23)c(-c2ccc(F)cc2)s1` [SB-649868], for which the Ki is 0.158 nM in assay [1] (setting [4]); 0.427 nM in assay [1] (setting [5]); 0.0407 nM in assay [1] (setting [6]); 0.0468 nM in assay [1] (setting [7]); 0.302 nM in assay [2] (antagonist incubation 30 min); 0.372 nM in assay [2] (antagonist incubation 1 h). In addition, the results for the Ki in assay [2] (antagonist incubation 2 h) and in assay [2] (antagonist incubation 4 h) were 0.17 nM and 0.151 nM, respectively.

As for `COc1ccnc(N2CCC3(CCCN(Cc4c[nH]c5ccccc45)C3=O)CC2)n1` [IPSU, 2-((1H-Indol-3-yl)methyl)-9-(4-methoxypyrimidin-2-yl)-2,9-diazaspiro[5.5]undecan-1-one], the Ki in assay [1] (setting [4]) was 331 nM; in assay [1] (setting [5]) it was 490 nM; in assay [1] (setting [6]), 288 nM; in assay [1] (setting [7]) it was 324 nM; in assay [2] (antagonist incubation 30 min), 10 nM; in assay [2] (antagonist incubation 1 h), 10.7 nM. Further, the values for the Ki in assay [2] (antagonist incubation 2 h) and in assay [2] (antagonist incubation 4 h) were 15.1 nM and 20.9 nM, respectively.
